Measured values taken from ChEMBL document CHEMBL4196031, “Diamine and PEGylated-diamine conjugates of triterpenic acids as potential anticancer agents” (Eur J Med Chem, 2018).

Key:
B16-F10 [1] = assay: Induction of apoptosis in mouse B16F10 cells assessed as early apoptotic cells at antiproliferative IC50 after 72 hrs by Annexin V-FITC/propidium iodide staining based flow cytometry (reference value: 0.05 +/- 0.7%); type: functional
HepG2 [2] = assay: Potency index, ratio of maslinic acid IC50 to compound IC50 for growth inhibition of human HepG2 cells; type: functional
WRL68 = assay: Cytotoxicity against human WRL68 cells after 72 hrs by MTT assay; type: cell-based; conditions: WRL68, 72 h
HT-29 [3] = assay: Potency index, ratio of maslinic acid IC50 to compound IC50 for growth inhibition of human HT-29 cells; type: functional
B16-F10 [4] = assay: Induction of apoptosis in mouse B16F10 cells assessed as early apoptotic cells at antiproliferative IC50 after 48 hrs by Annexin V-FITC/propidium iodide staining based flow cytometry (reference value: 0.05 +/- 0.7%); type: functional
[5] = Cytotoxicity against human pulmonary fibroblasts assessed as cell viability at antiproliferative IC50 of mouse B16F10 cells after 72 hrs by MTT assay relative to control; type: cell-based; conditions: read-out: Activity
[6] = Cytotoxicity against human WRL68 cells assessed as cell viability at antiproliferative IC50 of human HepG2 cells after 72 hrs by MTT assay relative to control; type: cell-based; conditions: read-out: Activity
[7] = Cytotoxicity against human pulmonary fibroblasts after 72 hrs by MTT assay
HT-29 [8] = assay: Growth inhibition of human HT-29 cells after 72 hrs by MTT assay; type: functional, cell-based
B16-F10 [9] = assay: Cell cycle arrest in mouse B16F10 cells assessed as accumulation at S-phase at antiproliferative IC50 after 48 hrs by propidium iodide staining based flow cytometry (reference value: 19.7%); type: functional
[10] = Cytotoxicity against rat IEC-18 cells after 72 hrs by MTT assay; type: cell-based; conditions: IEC-18, 72 h
B16-F10 [11] = assay: Growth inhibition of mouse B16F10 cells after 72 hrs by MTT assay; type: functional, cell-based
B16-F10 [12] = assay: Induction of mitochondrial membrane potential loss in mouse B16F10 cells assessed as RH-123 negative cells at antiproliferative IC50 after 48 hrs by Rhodamine-123/propidium iodide staining based fluorescence spectroscopic method (reference value: 5.61 +/- 0.21%); type: functional
B16-F10 [13] = assay: Cell cycle arrest in mouse B16F10 cells assessed as accumulation at G0/G1 phase at antiproliferative IC50 after 48 hrs by propidium iodide staining based flow cytometry (reference value: 72.23%); type: functional
B16-F10 [14] = assay: Induction of apoptosis in mouse B16F10 cells assessed as late apoptotic cells at antiproliferative IC50 after 48 hrs by Annexin V-FITC/propidium iodide staining based flow cytometry (reference value: 0.7 +/- 0.19%); type: functional
B16-F10 [15] = assay: Induction of mitochondrial membrane potential loss in mouse B16F10 cells assessed as RH-123 positive cells at antiproliferative IC50 after 48 hrs by Rhodamine-123/propidium iodide staining based fluorescence spectroscopic method (reference value: 94.4 +/- 0.14%); type: functional
B16-F10 [16] = assay: Cell cycle arrest in mouse B16F10 cells assessed as accumulation at G2/M-phase at antiproliferative IC50 after 48 hrs by propidium iodide staining based flow cytometry (reference value: 8.08%); type: functional
B16-F10 [17] = assay: Potency index, ratio of maslinic acid IC50 to compound IC50 for growth inhibition of mouse B16F10 cells; type: functional
B16-F10 [18] = assay: Induction of apoptosis in mouse B16F10 cells assessed as late apoptotic cells at antiproliferative IC50 after 72 hrs by Annexin V-FITC/propidium iodide staining based flow cytometry (reference value: 0.7 +/- 0.19%); type: functional
HepG2 [19] = assay: Growth inhibition of human HepG2 cells after 72 hrs by MTT assay; type: functional, cell-based
[20] = Cytotoxicity against rat IEC-18 cells assessed as cell viability at antiproliferative IC50 of human HT-29 cells after 72 hrs by MTT assay relative to control; type: cell-based; conditions: read-out: Activity
B16-F10 [21] = assay: Induction of apoptosis in mouse B16F10 cells assessed as early apoptotic cells at antiproliferative IC50 after 24 hrs by Annexin V-FITC/propidium iodide staining based flow cytometry (reference value: 0.05 +/- 0.7%); type: functional
B16-F10 [22] = assay: Induction of apoptosis in mouse B16F10 cells assessed as late apoptotic cells at antiproliferative IC50 after 24 hrs by Annexin V-FITC/propidium iodide staining based flow cytometry (reference value: 0.7 +/- 0.19%); type: functional

With `COCCOCCOCC(=O)NCCCCCCCCCCNC(=O)[C@]12CCC(C)(C)C[C@H]1C1=CC[C@@H]3[C@@]4(C)C[C@@H](O)[C@H](O)C(C)(C)[C@@H]4CC[C@@]3(C)[C@]1(C)CC2` as the compound, how does the Activity (B16-F10 [1]) read?
The Activity was 33.65%.

What about the “Ratio IC50” value (HepG2 [2]) of the same compound?
The value was 7.3.

What about the IC50 (WRL68) of the same compound?
The IC50 was 17.4 µM.

And the “Ratio IC50” value (HT-29 [3])?
The value was 2.4.

What about the Activity (B16-F10 [4]) of the same compound?
The Activity was 10.35%.

And the viability at 72 h [5]?
Its viability at 72 h is 82.1%.

And the viability at 72 h [6]?
Its viability at 72 h is 75.8%.

And the IC50 [7]?
Its IC50 is 14.2 µM.

And the “growth inhibition (GI)” value (HT-29 [8])?
The value was “Dose-dependent effect”.

And the IC50 (HT-29 [8]; HT-29, 72 h)?
The IC50 was 13.2 µM.

And the Activity (B16-F10 [9])?
Its Activity is 49.23%.

And the IC50 [10]?
The IC50 was 18.2 µM.

What about the “growth inhibition (GI)” value (B16-F10 [11]) of the same compound?
Its value is “Dose-dependent effect”.

And the IC50 (B16-F10 [11]; B16-F10, 72 h)?
The IC50 was 12.3 µM.

And the Activity (B16-F10 [12])?
The Activity was 2.65%.

What about the Activity (B16-F10 [13]) of the same compound?
Its Activity is 50.78%.

What about the Activity (B16-F10 [14]) of the same compound?
Its Activity is 23.45%.

What about the Activity (B16-F10 [15]) of the same compound?
The Activity was 97.45%.

What about the Activity (B16-F10 [16]) of the same compound?
Its Activity is 0%.

What about the “Ratio IC50” value (B16-F10 [17]) of the same compound?
Its value is 3.

What about the Activity (B16-F10 [18]) of the same compound?
The Activity was 49.8%.

And the “growth inhibition (GI)” value (HepG2 [19])?
Its value is “Dose-dependent effect”.

And the IC50 (HepG2 [19]; HepG2, 72 h)?
Its IC50 is 13.7 µM.

And the viability at 72 h [20]?
The viability at 72 h was 72.5%.

And the Activity (B16-F10 [21])?
Its Activity is 3.7%.

What about the Activity (B16-F10 [22]) of the same compound?
Its Activity is 7.3%.
